Test results from patent publication US4454128A, “6α-Methoxy-penicillins” (Dr. Karl Thomae GmbH, priority 1981, dated 1984).
Converted amounts (≈) assume the structure as drawn. Like-named read-outs stand apart in the source and are kept apart here.

How the values were obtained:
[1] = tested on: Serratia marcescens ATCC 13 880; assay: In vitro MIC, series dilution test in microtiter system; assay type: cell-based; details: Serr. marc. ATCC 13880, 18 to 20 hours at 37° C., read-out: minimum inhibitory concentration (MIC)
Method: (§1) For the tests, the method of the series dilution test in the microtiter system was used. The substances were tested for bacteriostasis in a liquid medium. The bacteriostatic activity was tested at the following concentration: 128; 64; 32; 16; 8; 4; 2; 1; 0.5; 0.25; 0.12; 0.06 μg/ml.
(§2) A nutrient medium having the following composition was used: 10 gm of peptone, 8 gm of meat extract oxoid, 3 gm of sodium chloride, 2 gm of sec. sodium phosphate are made up to […] with distilled water (pH 7.2 to 7.4). The age of the primary cultures was about 20 hours.
(§3) The bacterial suspension was adjusted, using the photometer (according to "Eppendorf") (test tube diameter 14 mm, filter 546 nm) by reference to the turbidity of a barium sulfate comparison suspension which was produced by a barium sulfate suspension formed by the addition of 3.0 ml of 1% barium chloride solution to 97 ml of 1% sulfuric acid. After adjustment, Streptococcus aronson was diluted in the ratio 1:15 and the other test pathogens were diluted in the ratio 1:1500 with a common salt solution.
(§4) 16 mg of the test substance were weighed in 10 ml measuring flasks and solvent was added up to the mark. Further dilutions in the series were made with distilled water or the solvent in question.
(§5) The depressions in the microtiter plates were filled with 0.2 ml of nutrient medium, 0.01 ml of the corresponding diluted substance and a drop of bacterial suspension (0.01 ml), and incubated for 18 to 20 hours at 37° C. A solvent check was carried out continuously at the same time.
(§6) The reading was taken macroscopically, and the respective limiting concentration (=the lower concentration still having bateriostatic activity) was determined.
(§7) The following were used as test organisms:
(§8) Escherichia coli ATCC 11 775, Serratia marcescens ATCC 13 880, Klebsiella pneumoniae ATCC 10 031 and BC 6, Proteus Mirabilis BC 17, Proteus rettgeri BC 7, Enterobacter cloacae ATCC 13 047, E. coli R^+ TEM(β-lactamase carrier) and K. pneumoniae 1088 E (β-lactamase carrier).
(§9) Table 1 which follows lists the minimum inhibitory concentrations (MIC) determined for typical representatives of the compounds according to the invention. These are the sodium salts of compounds of the formula I, where A=p-hydroxyphenyl and R is defined as follows: […]

[2] = tested on: Escherichia coli ATCC 11 775; assay: as above; assay type: cell-based; details: E. coli ATCC 11775, 18 to 20 hours at 37° C., read-out: minimum inhibitory concentration (MIC)
Method: as §1, §2, §3, §4, §5, §6, §7, §8, §9

[3] = tested on: Enterobacter cloacae ATCC 13 047; assay: as above; assay type: cell-based; details: Eb. cloac. ATCC 13047, 18 to 20 hours at 37° C., read-out: minimum inhibitory concentration (MIC)
Method: as §1, §2, §3, §4, §5, §6, §7, §8, §9

[4] = tested on: Klebsiella pneumoniae BC 6; assay: as above; assay type: cell-based; details: BC6, K. pneum. BC 6, 18 to 20 hours at 37° C., read-out: minimum inhibitory concentration (MIC)
Method: as §1, §2, §3, §4, §5, §6, §7, §8, §9

[5] = tested on: E. coli R^+ TEM(β-lactamase carrier); assay: as above; assay type: cell-based; details: Escherichia coli, read-out: minimum inhibitory concentration (MIC)
Method: as §1, §2, §3, §4, §5, §6, §7, §8, §9

[6] = tested on: Proteus rettgeri BC 7; assay: as above; assay type: cell-based; details: Providencia rettgeri, BC7; Prot. rettg. BC 7; 18 to 20 hours at 37° C.; read-out: minimum inhibitory concentration (MIC)
Method: as §1, §2, §3, §4, §5, §6, §7, §8, §9

[7] = tested on: Klebsiella pneumoniae ATCC 10 031; assay: as above; assay type: cell-based; details: K. pneum. ATCC 10031, 18 to 20 hours at 37° C., read-out: minimum inhibitory concentration (MIC)
Method: as §1, §2, §3, §4, §5, §6, §7, §8, §9

[8] = tested on: K. pneumoniae 1088 E (β-lactamase carrier); assay: as above; assay type: cell-based; details: Klebsiella pneumoniae, K. pneum. 1088 E, 18 to 20 hours at 37° C., read-out: minimum inhibitory concentration (MIC)
Method: as §1, §2, §3, §4, §5, §6, §7, §8, §9

[9] = tested on: Proteus Mirabilis BC 17; assay: as above; assay type: cell-based; details: Prot. mir. BC 17, 18 to 20 hours at 37° C., read-out: minimum inhibitory concentration (MIC)
Method: as §1, §2, §3, §4, §5, §6, §7, §8, §9

[10] = tested on: E. coli ATCC 11775; assay: In vivo test on experimental E. coli infection in mice; parameters: species or system E. coli; female mice of the NMRI strain; details: Escherichia coli, ATCC11775, sc, 168 h, subcutaneous, one treatment 1 hour post infectionem, observation period 7 days, read-out: ED50 (dose at which 50% of the animals survived)
Method: A number of the compounds according to the invention were tested in vivo on experimental infections in mice. E. coli ATCC 11775 were used as the pathogenic bacteria. An intraperitoneal infection was produced with 0.2 ml of a 5% mucin suspension of the bacteria. This corresponds to about 1.4×10^6 E. coli bacteria per mouse. Female mice of the NMRI strain were divided up into groups of 10 animals, two groups were untreated, the other groups were treated subcutaneously with various doses of the penicillin according to the invention, to determine the ED50 (dose at which 50% of the animals survived). One treatment was given (1 hour post infectionem).
In both cases, the observation period was 7 days. The results of these tests with 2 representatives of the penicillins according to the invention, compared with Temocillin, are shown in Table 3 which follows: […]

[11] = tested on: 20 Serratia marcescens carrying β-lactamase; assay: In vitro activity against 20 Serratia marcescens carrying β-lactamase, compared with Temocillin; assay type: cell-based; details: Serr. marc. (20)
Method: as §1, §2, §3, §4, §5, §6

[12] = inoculum 5 × 10^4, read-out: Geometric Mean (MIC)
[13] = inoculum 5 × 10^4, read-out: MIC Range
[14] = inoculum 5 × 10^6, read-out: Geometric Mean (MIC)

| Compound | MIC [1] | MIC [2] | MIC [3] | MIC [4] | MIC [5] | MIC [6] | MIC [7] | MIC [8] | MIC [9] | ED50 [10] | MIC [11, 12] | MIC [11, 13] | MIC [11, 14] | MIC ([11]; inoculum 5 × 10^6, read-out: MIC Range) |
| --- | --- | --- | --- | --- | --- | --- | --- | --- | --- | --- | --- | --- | --- | --- |
| CO[C@@]1(NC(=O)C(NC(=O)Nc2cnc(NCc3ccc(S(N)(=O)=O)cc3)nc2O)c2ccc(O)cc2)C(=O)N2[C@@H](C(=O)O)C(C)(C)S[C@@H]21 (stereo partly drawn) [D] | 2 µg/mL (≈ 2.79 µM) | 2 µg/mL (≈ 2.79 µM) | 1 µg/mL (≈ 1.4 µM) | 1 µg/mL (≈ 1.4 µM) | 2 µg/mL (≈ 2.79 µM) | 4 µg/mL (≈ 5.58 µM) | 1 µg/mL (≈ 1.4 µM) | 8 µg/mL (≈ 11.2 µM) | 0.5 µg/mL (≈ 0.698 µM) | – | – | – | – | – |
| CO[C@@]1(NC(=O)C(C(=O)O)c2ccsc2)C(=O)N2[C@@H](C(=O)O)C(C)(C)S[C@@H]21 (stereo partly drawn) [Compound E, Temocillin, reference compound] | 8 µg/mL (≈ 19.3 µM) | 4 µg/mL (≈ 9.65 µM) | 4 µg/mL (≈ 9.65 µM) | 2 µg/mL (≈ 4.83 µM) | 8 µg/mL (≈ 19.3 µM) | 4 µg/mL (≈ 9.65 µM) | 4 µg/mL (≈ 9.65 µM) | 4 µg/mL (≈ 9.65 µM) | 2 µg/mL (≈ 4.83 µM) | > 20 mg/kg | 10.2 µg/mL (≈ 24.6 µM) | 8 to 16 µg/mL (≈ 19.3 to 38.6 µM) | 24.3 µg/mL (≈ 58.6 µM) | – |
| CO[C@@]1(NC(=O)C(NC(=O)Nc2cnc(NCc3ccc(S(N)(=O)=O)s3)nc2O)c2ccc(O)cc2)C(=O)N2[C@@H](C(=O)O)C(C)(C)S[C@@H]21 (stereo partly drawn) [C] | 2 µg/mL (≈ 2.77 µM) | 1 µg/mL (≈ 1.38 µM) | 1 µg/mL (≈ 1.38 µM) | 1 µg/mL (≈ 1.38 µM) | 2 µg/mL (≈ 2.77 µM) | 2 µg/mL (≈ 2.77 µM) | 1 µg/mL (≈ 1.38 µM) | 8 µg/mL (≈ 11.1 µM) | 0.12 µg/mL (≈ 0.166 µM) | – | – | – | – | – |
| CO[C@@]1(NC(=O)C(NC(=O)Nc2cnc(Nc3ccc(S(N)(=O)=O)cc3)nc2O)c2ccc(O)cc2)C(=O)N2[C@@H](C(=O)O)C(C)(C)S[C@@H]21 (stereo partly drawn) [A] | 1 µg/mL (≈ 1.42 µM) | 1 µg/mL (≈ 1.42 µM) | 1 µg/mL (≈ 1.42 µM) | 1 µg/mL (≈ 1.42 µM) | 1 µg/mL (≈ 1.42 µM) | 2 µg/mL (≈ 2.85 µM) | 1 µg/mL (≈ 1.42 µM) | 4 µg/mL (≈ 5.69 µM) | 1 µg/mL (≈ 1.42 µM) | 4 mg/kg | 2.8 µg/mL (≈ 3.98 µM) | 2 to 8 µg/mL (≈ 2.85 to 11.4 µM) | 10.2 µg/mL (≈ 14.5 µM) | 4 to 32 µg/mL (≈ 5.69 to 45.5 µM) |
